Common to all, as to assay type: functional
Assay [1] has as its system Phytophthora citrophthora. Briefly: Antifungal activity against Phytophthora citrophthora assessed as inhibition of mycelium growth.
For assay [2], the system named is Phytophthora cinnamomi. Briefly: Antifungal activity against Phytophthora cinnamomi assessed as inhibition of mycelium growth.
Assay [3] has as its system Globisporangium rostratum. Briefly: Antifungal activity against Pythium rostratum assessed as inhibition of mycelium growth.
Assay [4] has as its system Phytopythium vexans. Briefly: Antifungal activity against Pythium vexans assessed as inhibition of mycelium growth.
In assay [5] the test system is Botrytis cinerea. In words: Antifungal activity against Botrytis cinerea assessed as inhibition of mycelium growth.
In assay [6] the test system is Pyricularia oryzae. In words: Antifungal activity against Pyricularia oryzae assessed as inhibition of mycelium growth.
The subject of assay [7] is Fusarium. In words: Antifungal activity against Fusarium roseum assessed as inhibition of mycelium growth.
Assay [8] deals with Alternaria alternata. In words: Antifungal activity against Alternaria alternata assessed as inhibition of mycelium growth.
The test system of assay [9] is Rhizoctonia solani. In words: Antifungal activity against Rhizoctonia solani assessed as inhibition of mycelium growth.
Assay [10] concerns Oculimacula yallundae. Briefly: Antifungal activity against Pseudocercosporella herpotrichoides assessed as inhibition of mycelium growth.
The test system of assay [11] is Parastagonospora nodorum. In words: Antifungal activity against Septoria nodorum assessed as inhibition of mycelium growth.
The subject of assay [12] is Helminthosporium. Briefly: Antifungal activity against Helminthosporium gramineum assessed as inhibition of mycelium growth.
For assay [13], the system named is Ustilago nuda. In words: Antifungal activity against Ustilago nuda assessed as inhibition of mycelium growth.

In brackets after ≈: the same amount, converted by molar mass.

As a reminder, the IC90 is the concentration needed for an effect of 90%. For the molecule `C/C1=C\[C@H](C)C[C@H](C)OC(=O)[C@H](C(C)C)NC(=O)[C@@H](Cc2ccc(O)c(I)c2)N(C)C(=O)CNC(=O)[C@@H](C)C1` [NEOSIPHONIAMOLIDE A], the IC90 in assay [1] is over 5 µg/mL; in assay [2] it was over 5 µg/mL; in assay [3], over 5 µg/mL; in assay [4] it was over 5 µg/mL; in [5] it was over 5 µg/mL; in [6], 5 µg/mL (≈ 7.63 µM). The IC90 is over 5 µg/mL in assay [7]; over 5 µg/mL in [8]; over 5 µg/mL in [9]; over 5 µg/mL in assay [10]; over 5 µg/mL in assay [11]; 5 µg/mL (≈ 7.63 µM) in [12]. Besides, in [13], the IC90 was over 5 µg/mL.

Regarding `CO[C@H]1CC2=CC(=O)O[C@@H]([C@H](C)[C@@H](OC)C[C@H](OC)/C=C/[C@H](C)[C@@H](O)C[C@@H](OC)/C=C/[C@H](C)[C@@H]([C@@H](C)[C@@H](OC)[C@@H](C)CCC(=O)[C@H](C)[C@@H](C/C=C/N(C)C=O)OC)OC(=O)/C=C/C=C(/C)C1)[C@H]2O` [SPHINXOLIDE B], the IC90 in assay [1], in assay [2], in [3], in assay [4], in [5] and in [6] was under 2 µg/mL each time. The IC90 in assay [7], in assay [8], in assay [9], in assay [10], in [11] and in assay [12] was under 2 µg/mL in each case. For the same molecule, the IC90 in assay [13] was under 2 µg/mL.
